Laboratory results from patent publication US8980908B2, “Non-peptidyl, potent, and selective mu opioid receptor antagonists and their use in treating opioid addiction and opioid induced constipation” (Virginia Commonwealth University, priority 2009, dated 2015).
Read-outs that look alike come from different tables or passages of the source.

Tests used:
[1] = test system: mouse gastrointestinal transit; conditions: high doses; cited from earlier work
[2] = dose as high as 10 mg/kg; cited from earlier work
[3] = target: T1, MOR (Mus musculus, UniProt P42866); design: expressed in transfected cells; host or cells: CHO (Chinese hamster ovary) cell line, membrane preparation; conditions: Table 13 controls and NAP; read-out: Ki μ (see reference 65); cited from earlier work
[4] = target: T1, MOR; design: expressed in transfected cells; host or cells: CHO (Chinese hamster ovary) cell line, membrane preparation; conditions: Table 13, NAP, cited from earlier work
[5] = target: T1, MOR; experiment: 35S-GTP[γS]-binding functional assay in MOR expressing CHO cells (Example 2); format: biochemical; design: expressed in transfected cells; host or cells: CHO (Chinese hamster ovary) cell line, membrane preparation
Procedure: Furthermore, these systems express the receptor at high density to provide optimal signal-to-noise ratios in the radioligand and ^35S-GTP[γS] binding assays.
(§1) Aliquots of a membrane preparation were incubated with the radioligands in the presence of different concentrations of the drug under investigation at 30° C. for 1 h. […] The potency of the drugs in displacing the specific binding of the radioligand was determined from data using linear regression analysis of Hill plots. The IC50 values will then be determined and corrected to K1 values using the Cheng-Prusoff equation. Functional assays, including ^35S-GTP[γS]-binding assay were conducted in the same cell membranes used for the receptor binding assays.

[6] = test system: morphine antinociception in mice; experiment: Warm-water tail immersion test, blockade of morphine antinociception (Example 2); format: in vivo, mouse (Swiss Webster); conditions: s.c., 5 min before morphine 10 mg/kg s.c.; 56 °C
[7] = test system: Caco-2 cells; conditions: cited from earlier work
[8] = target: T1, MOR; experiment: Competitive radioligand binding, [3H]naloxone, CHO cells (Example 7); design: expressed in transfected cells; host or cells: CHO (Chinese hamster ovary) cell line, membrane preparation; conditions: Table 13; for Selectivity δ/μ / Selectivity κ/μ: Ki ratio; for Ki: [3H]naloxone, three experiments, read-out: Ki μ
Procedure: as §1, with “protein (30 μg)” for “preparation”, “corresponding radioligand” for “radioligands”, “Ki” for “K1”, “assays” for “assays, including ^35S-GTP[γS]-binding assay”, “assays. Membrane proteins (10 μg) were incubated with varying concentrations of drugs, GDP (μ: 10 μM; κ and δ: 20 μM) and 0.1 nM ^35S-GTP[γS] in assay buffer for 2 h (μ) or 1.5 h (κ and δ) at 30° C. Nonspecific binding was determined with 10 μM unlabeled GTP[γS].” for “assays.”

[9] = target: T2, KOR (Homo sapiens, UniProt P41145); experiment: Competitive radioligand binding, [3H]norBNI or [3H]DPN, CHO cells (Example 7); conditions: Table 13; [3H]norBNI as radioligand; read-out: Ki κ
T2 construct: expressed in transfected cells; host or cells: CHO (Chinese hamster ovary) cell line, membrane preparation
Procedure: as §1, with “protein (30 μg)” for “preparation”, “corresponding radioligand” for “radioligands”, “Ki” for “K1”, “assays” for “assays, including ^35S-GTP[γS]-binding assay”, “assays. Membrane proteins (10 μg) were incubated with varying concentrations of drugs, GDP (μ: 10 μM; κ and δ: 20 μM) and 0.1 nM ^35S-GTP[γS] in assay buffer for 2 h (μ) or 1.5 h (κ and δ) at 30° C. Nonspecific binding was determined with 10 μM unlabeled GTP[γS].” for “assays.”

[10] = target: T1, MOR; experiment: MOR 35S-GTP[γS] binding assay (Example 7); format: biochemical; design: expressed in transfected cells; host or cells: CHO (Chinese hamster ovary) cell line, membrane preparation; conditions: Table 13; for MOR 35S-GTP[γS] Binding % Emax of DAMGO: DAMGO normalized to 100%
Procedure: as §1, with “protein (30 μg)” for “preparation”, “corresponding radioligand” for “radioligands”, “Ki” for “K1”, “assays” for “assays, including ^35S-GTP[γS]-binding assay”, “assays. Membrane proteins (10 μg) were incubated with varying concentrations of drugs, GDP (μ: 10 μM; κ and δ: 20 μM) and 0.1 nM ^35S-GTP[γS] in assay buffer for 2 h (μ) or 1.5 h (κ and δ) at 30° C. Nonspecific binding was determined with 10 μM unlabeled GTP[γS].” for “assays.”

[11] = target: DOR (UniProt P41143); experiment: DOR 35S-GTP[γS] binding assay (Example 7); format: biochemical; design: Ki δ; [3H]NTI; DOR 35S-GTP[γS]; other: three experiments; other: NAP; other: SNC80 normalized to 100%; conditions: for DOR 35S-GTP[γS] Binding % Emax of SNC80: SNC80 normalized to 100%; for EC50: three experiments
Procedure: as §1, with “protein (30 μg)” for “preparation”, “corresponding radioligand” for “radioligands”, “Ki” for “K1”, “assays” for “assays, including ^35S-GTP[γS]-binding assay”, “assays. Membrane proteins (10 μg) were incubated with varying concentrations of drugs, GDP (μ: 10 μM; κ and δ: 20 μM) and 0.1 nM ^35S-GTP[γS] in assay buffer for 2 h (μ) or 1.5 h (κ and δ) at 30° C. Nonspecific binding was determined with 10 μM unlabeled GTP[γS].” for “assays.”

[12] = target: T2, KOR; experiment: KOR 35S-GTP[γS] binding assay (Example 7); format: biochemical; conditions: for KOR 35S-GTP[γS] Binding % Emax of U50,488H: U50,488H normalized to 100%; for EC50: three experiments
Procedure: as §1, with “protein (30 μg)” for “preparation”, “corresponding radioligand” for “radioligands”, “Ki” for “K1”, “assays” for “assays, including ^35S-GTP[γS]-binding assay”, “assays. Membrane proteins (10 μg) were incubated with varying concentrations of drugs, GDP (μ: 10 μM; κ and δ: 20 μM) and 0.1 nM ^35S-GTP[γS] in assay buffer for 2 h (μ) or 1.5 h (κ and δ) at 30° C. Nonspecific binding was determined with 10 μM unlabeled GTP[γS].” for “assays.”

[13] = target: DOR (UniProt P41143); experiment: Competitive radioligand binding, [3H]NTI, CHO cells (Example 7); design: Ki δ; [3H]NTI; DOR 35S-GTP[γS]; other: three experiments; other: NAP; other: SNC80 normalized to 100%; conditions: Table 13, read-out: Ki δ
Procedure: as §1, with “protein (30 μg)” for “preparation”, “corresponding radioligand” for “radioligands”, “Ki” for “K1”, “assays” for “assays, including ^35S-GTP[γS]-binding assay”, “assays. Membrane proteins (10 μg) were incubated with varying concentrations of drugs, GDP (μ: 10 μM; κ and δ: 20 μM) and 0.1 nM ^35S-GTP[γS] in assay buffer for 2 h (μ) or 1.5 h (κ and δ) at 30° C. Nonspecific binding was determined with 10 μM unlabeled GTP[γS].” for “assays.”

[14] = test system: Caco-2 cells; experiment: Bidirectional transport in Caco-2 cells; format: in vitro ADME
Procedure: To further characterize the permeability of compounds 8 and 12, they were evaluated in Caco-2 cells for their bidirectional transport capacity (FIG. 29).
Caco-2 (passages 45-47; ATCC, Manassas, Va.) cell culture and bidirectional permeability studies with polyester Transwell filters were performed as described previously.^67 Briefly, cells were cultured in Dulbecco's modified Eagle's medium (9.6 g/L glucose) with 10%/fetal bovine serum and supplemented with 100 unit/mL penicillin, 100 μg/mL streptomycin, and 5% nonessential amino acids for 22 days after seeding on 12 mm 0.4 μm #3460 Transwell-Clear inserts (Fisher Scientific) at a density of 80,000 cells/cm^2. […] A portion of the supernatants was analyzed by HPLC-UV using an Alltima HP C18 column (3 μm, 4.6×100 mm; Alltech, Deerfield, Ill.) at 270 nm for NAP, and a Microsorb-MV 100-3 C18 (4.6×100 mm; Varian) column for NMP or NGP at 266 nm. Analytes concentration was quantified from standard curves prepared in transport buffer-acetonitrile (4:1). […] Apparent permeability was then calculated using the following equation: Papp=J/(A×Ci), where J is the transport rate, A is the surface area of the cell monolayer, and Ci is the initial concentration of the dosing solution.

[15] = test system: morphine antinociceptive effect in mice; conditions: antagonizing morphine 10 mg/kg; s.c.; cited from earlier work
[16] = in vivo; cited from earlier work
[17] = test system: morphine naive mice; experiment: Acute charcoal gavage and intestinal motility assay in morphine naive mice; conditions: morphine 10 mg/kg
[18] = test system: mice; experiment: Tail flick test, acute antinociception (Example 7); conditions: 10 mg/kg
[19] = target: DOR (UniProt P41143); format: binding; design: rows headed: Ki ± SEM [3H]NTI (δ); other: n=3; Ki ± SEM DOR; conditions: n=3; read-out: Ki ± SEM DOR
[20] = target: T2, KOR; format: binding; conditions: n=3; read-out: Ki ± SEM KOR
[21] = target: T1, MOR; experiment: Competitive radioligand binding, [3H]naloxone, CHO cells (Example 2); design: expressed in transfected cells; host or cells: CHO (Chinese hamster ovary) cell line, membrane preparation; conditions: n=3; read-out: Ki ± SEM MOR
[22] = target: T1, MOR; experiment: [35S]GTPγS functional assay (Example 1); format: biochemical; design: expressed in transfected cells; host or cells: CHO (Chinese hamster ovary) cell line, membrane preparation; conditions: Emax of compound vs Emax of DAMGO (normalized to 100%)
[23] = target: T1, MOR; experiment: Competitive radioligand binding, [3H]DAMGO, mono-cloned receptor in CHO cells (Example 1); design: expressed in transfected cells; host or cells: CHO (Chinese hamster ovary) cell line, membrane preparation; conditions: read-out: Ki ± SEM [3H]DAMGO (μ); n=3
[24] = target: T2, KOR; format: binding; conditions: n=3; read-out: Ki ± SEM [3H]norBNI (κ)
[25] = target: DOR (UniProt P41143); format: binding; design: rows headed: Ki ± SEM [3H]NTI (δ); other: n=3; Ki ± SEM DOR; conditions: n=3; read-out: Ki ± SEM [3H]NTI (δ)

| Compound | AD50 value for blockade of morphine antinociception [6] | Selectivity δ/μ [8] | Selectivity κ/μ [8] | Ki [8] | Ki [9] | EC50 [10] | MOR 35S-GTP[γS] Binding % Emax of DAMGO [10] | DOR 35S-GTP[γS] Binding % Emax of SNC80 [11] | EC50 [11] | KOR 35S-GTP[γS] Binding % Emax of U50,488H [12] | EC50 [12] | Ki [13] | apparent permeability / bidirectional transport [14] | other results |
| --- | --- | --- | --- | --- | --- | --- | --- | --- | --- | --- | --- | --- | --- | --- |
| 17-Cyclopropylmethyl-3,14β-dihydroxy-4,5α-epoxy-6β-[(4′-pyridyl)acetamido]morphinan [Compound 6] | 4.5198 (2.4570 to 8.269.12) mg/kg (95% C.L.) |  |  |  |  |  |  |  |  |  |  |  |  | diarrhea [1]: incidence of diarrhea associated with high doses of NAP; withdrawal symptoms [2]: marginal withdrawing symptoms; Ki [3]: 0.37 ± 0.07 nM; MOR 35S-GTP[γS] Binding % Emax of DAMGO (see reference 65) [4]: 22.72 ± 0.84%; EC50 ([4]; read-out: MOR 35S-GTP[γS] Binding EC50 (see reference 65)): 1.14 ± 0.38 nM; EC50 ([5]; n=3): 1.15 ± 0.384 nM; Emax (% Stim) ([5]; n=3): 83.3 ± 3.1 % Stim; Percent Max of DAMGO ([5]; normalized to full agonist DAMGO (3 μM)): 22.72 ± 0.84%; apparent permeability (words, reported previously) [7]: significantly low |
| 17-Cyclopropylmethyl-3,14β-dihydroxy-4,5α-epoxy-6β-{2′-[(pyridine-4″-yl)carboxamido]acetamido}morphinan [Compound 12] |  | 719 | 278 | 0.73 ± 0.59 nM | 203 ± 67 nM | 2.84 ± 0.53 nM | 22.62 ± 0.66% | 84.3 ± 23.2% | 19 ± 2.9 nM | 23.5 ± 1.6% | 25 ± 22.4 nM | 526 ± 78.3 nM | no significant difference in its bidirectional transport capacity |  |
| 17-Cyclopropylmethyl-3,14β-dihydroxy-4,5α-epoxy-6β-{[4′-(3′-methylpyridyl)]carboxamido}morphinan [Compound 8] |  | 470 | 166 | 0.58 ± 0.25 nM | 96.7 ± 12.2 nM | 1.52 ± 0.26 nM | 30.63 ± 0.55% | 90.2 ± 21.0% | 38.6 ± 10 nM | 31.4 ± 3.9% | 26.4 ± 8.4 nM | 273.6 ± 1.8 nM | low permeability |  |
| C=CCN1CC[C@]23c4c5ccc(O)c4O[C@H]2C(=O)CC[C@@]3(O)[C@H]1C5 [Naloxone, reference compound] | 0.05 (0.03 to 0.09) mg/kg (95% C.L.) |  |  |  |  |  |  |  |  |  |  |  |  | AD50 values (data taken from Li, et al.) [15]: 0.05 (0.03-0.09) mg/kg (95% CL); systemic bioavailability [16]: ~2% |
| CN1CC[C@]23c4c5ccc(O)c4O[C@H]2[C@@H](O)C=C[C@H]3[C@H]1C5.O=S(=O)(O)O [morphine, Morphine sulfate] |  |  |  |  |  |  |  |  |  |  |  |  |  | intestinal motility (% of intestine length travelled by charcoal) [17]: 12.4±2.0%; percentage maximum possible effect (% MPE) [18]: 100% |
| COC(=O)/C=C/C(=O)N[C@@H]1CC[C@@]2(O)[C@H]3Cc4ccc(O)c5c4[C@@]2(CCN3CC2CC2)[C@H]1O5 [β-FNA, β-funaltrexamine] |  |  |  |  |  |  |  |  |  |  |  |  |  | Ki [19]: 27.8 ± 4.6 nM; Ki [20]: 0.94 ± 0.05 nM; Ki [21]: 0.41 ± 0.04 nM; Percent Max of DAMGO [22]: 0.00%; Ki [23]: 0.41 ± 0.04 nM; Ki [24]: 0.94 ± 0.05 nM; Ki [25]: 27.8 ± 4.6 nM |
